These results are taken from patent US20100035865A1, “Sulfonamides and Pharmaceutical Compositions Thereof” (PFIZER INC, priority 2007, published 2010).

Assay [1] has as its system AMPA receptors. Kind of assay: AMPA ES Cell FLIPR Screen, G7330A (single dose % effect). The assay is classed as cell-based, murine. The conditions noted are these: Dose 32.0 uM; mean (range and n in cells below); ES cell-derived neurons, 32 uM AMPA challenge; negative control AMPA alone, positive control AMPA plus cyclothiazide. How it is done: (§1) The murine ES cell line used was E14-Sx1-16C, which has a targeted mutation in the Sox1 gene, a neuroectodermal marker, that offers G418 resistance when the Sox1 gene is expressed (Stem Cell Sciences). ES cells were maintained undifferentiated as previously described (Roach). […] ES cells were plated on gelatin-coated dishes (BD Biosciences), the media was changed daily and the cells were dissociated with 0.05% Trypsin EDTA (Invitrogen) every other day.
(§2) Embryoid Body Formation: Prior to embryoid body (EB) formation the ES cells were weaned from FBS onto Knockout Serum Replacement (KSR) (Invitrogen). To form EBs, ES cells were dissociated into a single cell suspension then 3×10^6 cells were plated in bacteriology dishes (Nunc 4014) and grown as a suspension culture in NeuroEB-I medium that consisted of Knockout™ D-MEM (Invitrogen), supplemented with 10% KSR (Invitrogen), 0.2 mM L-Glutamine (Invitrogen), 0.1 mM MEM non-essential amino acids (Invitrogen), 30 μg/ml Gentamicin (Invitrogen), 1000 u/ml ESGRO (Chemicon), 0.1 mM 2-Mercaptoethanl (Sigma) and 150 ng/ml Transferrin (Invitrogen). The plates were put on a Stovall Belly Button shaker in an atmospheric oxygen incubator. The media was changed on day 2 of EB formation with NeuroEB-I and on day 4 with NeuroEB-II (NeuroEB-I plus 1 μg/ml mNoggin [R&D Systems]).
(§3) Neuronal Precursor Selection and Expansion: On day 5 of EB formation, EBs were dissociated with 0.05% Trypsin EDTA, and 4×10^6 cells/100 mm dish were plated on Laminin coated tissue culture dishes in NeuroII-G418 medium that consisted of a base medium of a 1:1 mixture of D-MEM/F12 supplemented with N2 supplements and NeuroBasal Medium supplemented with B27 supplement and 0.1 mM L-Glutamine (all from Invitrogen). The base medium was then supplemented with 10 ng/ml bFGF (Invitrogen), 1 μg/ml mNoggin, 500 ng/ml SHH-N, 100 ng/ml FGF-8b (R&D Systems), 1 μg/ml Laminin and 200 μg/ml G418 (Invitrogen) for selection of neuronal precursors expressing Sox-1. The plates were put in an incubator that contained 2% Oxygen and were maintained in these conditions. During the 6-day selection period, the NeuroII media was changed daily. On day 6, the surviving neuronal precursor foci were dissociated with 0.05% Trypsin EDTA and the cells were plated at a density of 1.5×10^6 cells/100 mm Laminin coated dish in NeuroII-G418 medium. The cells were dissociated every other day for expansion, and prepared for Cryopreservation at passage 3 or 4. The cryopreservation medium contained 50% KSR, 10% Dimethyl Sulfoxide (DMSO) (Sigma) and 40% NeuroI-G418I medium. Neuronas precursors were crypreserved at a concentration of 4×10^6cells/ml and 1 ml/cryovial in a controlled rate freezer overnight then transferred to an ultra-low freezer or liquid nitrogen for long-term storage,
(§4) Neuronal Differentiation: Cryopreserved ES cell-derived neuronal precursors were thawed by the rapid thaw method in a 37-degree water-bath. The cells were transferred from the cryovial to a 100 mm Laminin coated tissue culture dish that already contained NeuroII-G418 that had been equilibrated in a 2% Oxygen incubator. The media was changed with fresh NeuroII-G418 the next day. The cells were dissociated every other day as described above for expansion to generate enough cells to plate for the screen. For the screen, the cells were plated into 384-well poly-d-lysine coated tissue culture dishes (BD Biosciences) by the automated SelecT at a cell density of 6K cells/well in differentiation medium NeuroIII that contained a 4:1 ratio of the NeuroBasalMedium/B27:D-MEM/F12/N2 supplemented with 1 μM cAMP (Sigma), 200 μM Ascorbic Acid (Sigma), 1 μg/ml Laminin (Invitrogen) and 10 ng/ml BDNF (R&D Systems). The plates were put in an incubator with 2% Oxygen and allowed to complete the differentiation process for 7 days. The cells could then be used over a 5-day period for the high throughput screen.
(§5) Procedure for AMPA ES Cell FLIPR Screen […]

In assay [2] the test system is AMPA receptors. As to the kind of experiment: AMPA ES Cell FLIPR Screen, G7330B (EC50 and % effect). The format is cell-based, murine. The settings on record: for G7330B (U): % Effect: Dose 32.0 uM; for pEC50: ES cell-derived neurons, 32 uM AMPA challenge. The method, then: as §1, §2, §3, §4, §5
[3] abbreviates: individual determinations, read-out: G7330B (U): EC50.
Where [4] appears, read: mean of individual determinations (range and n in cells below), read-out: G7330B mean EC50.

Molecules are shown by their SMILES. pEC50: −log10 of the molar value. Several values for one entry are separate records, joined by “and”; a condition that tells them apart may be missing. Equal values may be shown once. Read-outs that look alike come from different tables or passages of the source. Some results are limits rather than exact numbers.

Usually pEC50 stands for the negative decadic logarithm of the EC50, by convention in mol/L.

As to `CCS(=O)(=O)N[C@@H]1CNCC[C@@H]1c1ccc(-c2ccccc2)cc1` (relative stereo) [Example 11, Ethanesulfonic acid (cis-4-biphenyl-4-yl-piperidin-3-yl)-amide], the “G7330A: % Effect” value in assay [1] was determined as 2.34%. Moreover, the “G7330B (U): % Effect” value in assay [2] (individual determinations) was 1.55% and 3.14% and 2.25% and 2.45%.
For `CCCS(=O)(=O)N[C@@H]1CNCC[C@H]1c1ccc(-c2ccccc2)cc1` (relative stereo) [Example 10, Propane-1-sulfonic acid (trans-4-biphenyl-4-yl-piperidin-3-yl)-amide], the “G7330A: % Effect” value in assay [1] is listed as 11.2%. In addition, in assay [2] (individual determinations), the “G7330B (U): % Effect” value is 23.4% and 19.5% and 18.5% and 5.64% and 6.55% and 7.27%. The pEC50 in assay [2] (setting [3]) and in assay [2] (setting [4]) was less than 4.49 throughout.
Turning to `O=S(=O)(NC1CNCCC1c1ccc(-c2ccccc2)cc1)C1CC1` (stereo not drawn) [Example 14, Cyclopropanesulfonic acid(trans-4-biphenyl-4-yl-piperidin-3-yl)-amide], the “G7330A: % Effect” value in assay [1] is 3.36%. In addition, the “G7330B (U): % Effect” value in assay [2] (individual determinations) is 4.61% and 2.97% and 3.26% and 0.0952% and 0.150% and 1.02%. Also, the pEC50 in assay [2] (setting [3]) and in assay [2] (setting [4]) was less than 4.49 in each case.
With `CC(C)S(=O)(=O)N[C@@H]1CN(C)CC[C@H]1c1ccc(-c2ccccc2)cc1` (relative stereo) [Example 2, propane-2-sulfonic acid (trans-4-biphenyl-4-yl-1-methyl-piperidin-3-yl)-amide], the “G7330A: % Effect” value in assay [1] is on record as 112%. Besides, the “G7330B (U): % Effect” value in assay [2] (individual determinations) was 127% and 141% and 134% and 142% and 151% and 173% and 180%. Moreover, the pEC50 in assay [2] (setting [3]) was 5.35 and 5.22 and 5.42 and 5.09; in assay [2] (setting [4]), 5.27.
As for `CCCS(=O)(=O)N[C@@H]1CNCC[C@@H]1c1ccc(-c2ccccc2)cc1` (relative stereo) [Example 12, Propane-1-sulfonic acid(cis-4-biphenyl-4-yl-piperidin-3-yl)-amide], the “G7330A: % Effect” value in assay [1] amounted to 0.110%. In addition, the “G7330B (U): % Effect” value in assay [2] (individual determinations) was 0.428% and −0.204% and −0.02059% and 0.243%.
With `CCS(=O)(=O)N[C@@H]1CNCC[C@H]1c1ccc(-c2ccccc2)cc1` (relative stereo) [Example 9, Ethanesulfonic acid (trans-4-biphenyl-4-yl-piperidin-3-yl)-amide], the “G7330A: % Effect” value in assay [1] came out at 59.1%. Moreover, the “G7330B (U): % Effect” value in assay [2] (individual determinations) is 73.4% and 60.8% and 66.9%. The pEC50 in assay [2] (setting [3]) and in assay [2] (setting [4]) was less than 4.49 in each case.
